US20030186289A1, “Model cell systems for screening of anti-hypertrophic therapeutics” (Myogen, Inc., priority 2002, published 2003)

Legend:
Assay type in all cases: cell-based, rat
[1] = tested on: alpha skeletal actin promoter; assay: alpha skeletal actin promoter-luciferase reporter in H9C2 cells
MEF-2 reporter = assay: 3×MEF2 promoter-luciferase reporter in H9C2 cells; conditions: for MEF-2 reporter expression: agonist 100 μM
Text: Plasmid constructs used. Gal4 DNA-binding domain constructs were generated by cloning cDNAs encoding constitutively active murine calcineurin (residues 1-398) and full length human MEF-2 into the pBIND expression vector (Promega, Inc.). VP16 fusion constructs were created by cloning full length human MCIP1 and HDAC5 cDNAs into the pACT expression vector (Promega, Inc.). In assays, Gal4 and VP16 fusion constructs were cotransfected with pG5-luc reporter (Promega), a firefly luciferase gene under control of a multimerized Gal4 promoter sequence. Promoter reporter constructs were generated by cloning the promoter regions of ANF, α-skeletal actin, IL-2 (with multiple NFAT binding sites) and myoglobin genes upstream of a promoter-less firefly luciferase open reading frame (pGL3 plasmid, Promega, Inc.). Similarly, three consensus MEF-2 binding sites or a single TATA element were cloned into pGL3. HDAC5-GFP construct was a gift from E. Olson, UT Southwestern Medical Center, Dallas Tex.
Cells culture and transient transfections. All muscle cell lines were obtained from the American Type Culture Collection (ATCC). Cells were cultured under conditions recommended by ATCC. Transient transfections were carried out in 96-well plates (5000 cells/well) using the Fugene transfection reagent (Roche), as per manufacturer's instructions. […] Forty-eight hours post-transfection, cells were processed for luciferase measurements.
Adenoviral constructs. Recombinant adenovirus α-skeletal actin-luc, and 3×MEF2-luc were constructed using the Adeasy vector system (Qbiogene) according to manufacturers instructions. Recombinant adenovirus HDAC5 and HDAC5-S259/498A were provided by E. Olson. Recombinant adenovirus MCIPexon4 was provided by S. Williams. Recombinant adenovirus β-galactosidase was from Qbiogene. Cells were plated in 96-well plates, and 24 hr after plating, were infected with recombinant adenovirus at moi of 50 in serum free media for three hrs. Forty-eight hrs after infection, the cells were lysed and luciferase levels were measured as above.
Luciferase measurement. Transiently transfected or adenovirus transfected cells were processed for luciferase activity using the Luc-Lite assay kit (Packard), as per manufacturer's instructions. Briefly, cells were washed in serum- and phenol red-free medium, then lysed in the presence of luciferase substrate to produce a long half-life “glow” luminescence. Relative light intensity was quantitated on a Fusion Universal Microplate Analyzer (Packard).

[2] = tested on: hypertrophic promoter activity (ANF, NFAT, MEF2, aSkAct, Myb); assay: hypertrophic promoter-luciferase constructs in H9C2 cells, agonist dose-response survey; conditions: dose-response survey of agonists
Method: FIG. 5—H9C2 promoter activity is unresponsive to the adrenergic agonists isoproterenol, norepinephrine and forskolin. H9 cells were transfected with promoter-luciferase contructs as shown and as described in materials and methods. Transfected cells were treated with hypertrophic agonists as shown. Luciferase units were measured and plotted as fraction of untreated control vs concentration of agonist used. Symbols ANF, NFAT, MEF2, aSkAct, and Myb are used as in FIG. 3.
Plasmid constructs used. Gal4 DNA-binding domain constructs were generated by cloning cDNAs encoding constitutively active murine calcineurin (residues 1-398) and full length human MEF-2 into the pBIND expression vector (Promega, Inc.). VP16 fusion constructs were created by cloning full length human MCIP1 and HDAC5 cDNAs into the pACT expression vector (Promega, Inc.). […] Promoter reporter constructs were generated by cloning the promoter regions of ANF, α-skeletal actin, IL-2 (with multiple NFAT binding sites) and myoglobin genes upstream of a promoter-less firefly luciferase open reading frame (pGL3 plasmid, Promega, Inc.). […]
Luciferase measurement. […] Briefly, cells were washed in serum- and phenol red-free medium, then lysed in the presence of luciferase substrate to produce a long half-life “glow” luminescence. Relative light intensity was quantitated on a Fusion Universal Microplate Analyzer (Packard).

[3] = recombinant adenovirus infection, moi of 50
[4] = drug added at transfection or expression construct, 48 h

Row | Compound | hypertrophic promoter activity [2] | MEF-2 reporter expression (MEF-2 reporter) | other results
1 | HDAC5-S259/498A: mutant of HDAC5 where serine residues 259 and 498 are replaced by alanine; super-repressor of the MEF-2 pathway | – | – | repression of the alpha-skeletal-actin promoter [1, 3]: most effective repressor; repression of the 3×MEF2 promoter (MEF-2 reporter; [3]): most effective repressor
2 | NC[C@H](O)c1ccc(O)c(O)c1 [norepinephrine] | relatively unaffected | – | –
3 | HDAC: anti-hypertrophic gene product HDAC5, MEF-2 inhibitor, expressed by transfection or adenovirus | – | – | expression of alpha skeletal actin reporter [1, 4]: significantly reduced; expression of MEF-2 reporter (MEF-2 reporter; [4]): significantly reduced
4 | CC[C@H](C)[C@H](NC(=O)[C@H](CC(=O)O)NC(=O)[C@H](CC(C)C)NC(=O)[C@H](Cc1c[nH]cn1)NC(=O)[C@@H]1CSSC[C@H](N)C(=O)N[C@@H](CO)C(=O)N[C@H]2CSSC[C@H](NC(=O)[C@H](CCC(=O)O)NC(=O)[C@H](CCCCN)NC(=O)[C@H](CC(=O)O)NC(=O)[C@H](CCSC)NC(=O)[C@H](CC(C)C)NC(=O)[C@H](CO)NC(=O)[C@H](CO)NC2=O)C(=O)N[C@@H](C(C)C)C(=O)N[C@@H](Cc2ccc(O)cc2)C(=O)N[C@@H](Cc2ccccc2)C(=O)N1)C(=O)N[C@H](C(=O)N[C@@H](Cc1c[nH]c2ccccc12)C(=O)O)[C@@H](C)CC [endothelin] | – | unaffected | –
5 | CNC[C@H](O)c1cccc(O)c1 [phenylephrine] | – | unaffected | –
6 | CC(C)NCC(O)c1ccc(O)c(O)c1 (centres unmarked) [isoproterenol] | relatively unaffected | – | –
